Structures can show the parent of a compound that is named as a salt.
Columns and labels:
[1] = molecular target: T1, full-length proMMP9(1-707) (SEQ ID NO:1) (Homo sapiens, UniProt P14780, R574P); assay: proMMP9/MMP3 P126 Activation Assay; format: biochemical; settings: 20 nM proMMP9, 20 nM MMP3, 80 min 37° C.
T1 construct: made in house; host or cells: HEK293 (proMMP9, secreted); E. coli (MMP3)
Method: The reaction volume was 50 μL. […] Reactivity of residual MMP3 towards P-126 substrate was minimal under these conditions.

[2] = molecular target: proMMP13(1-268) (SEQ ID NO:7) (Homo sapiens, UniProt P45452); assay: ThermoFluor binding assay with proMMP13(1-268); set-up: 6xHis (C); made in house; settings: pH 7.0
How it was run: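 Thermal shift binding with 3.5 μM protein and 25 μM 1,8-ANS in 50 mM HEPES pH 7.0, 100 mM NaCl, 0.001% Tween-20, 2.5 mM MgCl2, 300 μM CaCl2. Samples were heated 40 to 90 °C at 1 °C/min, fluorescence read at 500 nm. Tm shifts across an 11-point DMSO dilution series were fitted with DSC-derived thermodynamic parameters.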

[3] = molecular target: T2, proMMP9(67-444;ΔFnII) (SEQ ID NO:5) (Homo sapiens, UniProt P14780, DEL216-390); assay: ThermoFluor binding assay with proMMP9(67-444;ΔFnII); settings: pH 7.0
T2 construct: start methionine (N); made in house; host or cells: E. coli BL21(DE3) RIL
T2 sequence (P14780 with tags, fused parts or gaps DEL216-390): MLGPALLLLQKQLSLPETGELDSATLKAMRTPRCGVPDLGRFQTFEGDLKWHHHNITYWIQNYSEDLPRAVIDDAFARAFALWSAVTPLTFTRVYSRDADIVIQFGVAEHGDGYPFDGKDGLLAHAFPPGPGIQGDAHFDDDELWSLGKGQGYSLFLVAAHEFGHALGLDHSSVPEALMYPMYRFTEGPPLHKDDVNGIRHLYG
How it was run: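 Thermal shift binding with 3.5 μM proMMP9(67-444;ΔFnII) and 50 μM 1,8-ANS in 50 mM HEPES pH 7.0, 100 mM NaCl, 2.5 mM MgCl2, 300 μM CaCl2, 0.001% Tween-20, with serially diluted compound. Heated 40 to 90° C at 1° C/min; fluorescence-derived Tm fitted using DSC/ThermoFluor thermodynamic parameters.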

[4] = molecular target: T3, proMMP9(20-445;ΔFnII) (SEQ ID NO:6) (Homo sapiens, UniProt P14780, DEL216-390); assay: ThermoFluor binding assay with proMMP9(20-445;ΔFnII); settings: pH 7.0
T3 construct: start methionine (N); made in house; host or cells: E. coli BL21(DE3) RIL
T3 sequence (P14780 with tags, fused parts or gaps DEL216-390): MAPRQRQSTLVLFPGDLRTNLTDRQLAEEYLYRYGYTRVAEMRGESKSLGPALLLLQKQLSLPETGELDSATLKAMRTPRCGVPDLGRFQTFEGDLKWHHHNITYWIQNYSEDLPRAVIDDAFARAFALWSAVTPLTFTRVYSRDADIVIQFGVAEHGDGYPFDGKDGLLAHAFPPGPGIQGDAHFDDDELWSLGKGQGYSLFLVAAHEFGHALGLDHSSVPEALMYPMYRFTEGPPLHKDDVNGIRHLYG
How it was run: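 proMMP9(20-445;ΔFnII) at 2.8 μM with 50 μM 1,8-ANS in 50 mM HEPES pH 7.0, 100 mM NaCl, 0.001% Tween-20, 2.5 mM MgCl2, 300 μM CaCl2; compounds serially diluted in DMSO. Heated 40–90 °C at 1 °C/min, fluorescence read at 500±25 nm. Tm fit by standard equations; binding fit using DSC/TF-derived thermodynamic parameters.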

T1 sequence (P14780 20-707 R574P): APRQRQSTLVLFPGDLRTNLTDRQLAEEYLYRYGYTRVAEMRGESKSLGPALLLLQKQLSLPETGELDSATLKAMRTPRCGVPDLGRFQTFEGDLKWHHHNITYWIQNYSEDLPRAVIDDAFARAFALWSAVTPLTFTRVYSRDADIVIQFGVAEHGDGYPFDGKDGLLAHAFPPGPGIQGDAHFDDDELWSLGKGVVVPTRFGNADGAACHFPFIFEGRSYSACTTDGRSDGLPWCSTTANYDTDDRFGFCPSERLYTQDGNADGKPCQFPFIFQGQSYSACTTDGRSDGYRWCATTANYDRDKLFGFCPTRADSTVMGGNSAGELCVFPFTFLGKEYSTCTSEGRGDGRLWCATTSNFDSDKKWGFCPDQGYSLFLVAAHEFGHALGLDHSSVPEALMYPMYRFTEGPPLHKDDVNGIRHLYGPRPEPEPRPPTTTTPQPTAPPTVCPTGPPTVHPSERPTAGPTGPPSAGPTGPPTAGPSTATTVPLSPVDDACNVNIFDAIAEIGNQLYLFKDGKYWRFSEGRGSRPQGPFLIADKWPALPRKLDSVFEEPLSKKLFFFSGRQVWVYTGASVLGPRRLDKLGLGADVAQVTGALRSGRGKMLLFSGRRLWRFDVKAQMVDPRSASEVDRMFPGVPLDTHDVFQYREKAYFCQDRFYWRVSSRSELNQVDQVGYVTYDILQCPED

Row | Structure (SMILES) | IC50 [1] [nM] | Kd [2] [nM] | Kd [3] [nM] | Kd [4] [nM]
1 | COc1cc(C)c(C(N)=O)cc1Nc1nc(-c2sc(C)nc2C)cs1 [Example 36, 5-(2′,4′-Dimethyl-[4,5′]bithiazolyl-2-ylamino)-4-methoxy-2-methyl-benzamide.TFA] | 670 | 11000 | 27000 | 850
2 | Cc1nc(Nc2ccccn2)sc1-c1csc(Nc2cc(C(N)=O)ccc2OC(C)C)n1 [Example 96, 4-Isopropoxy-3-[4′-methyl-2′-(pyridin-2-ylamino)-[4,5′]bithiazolyl-2-ylamino]-benzamide.TFA] | ~5000 | 16000 | 3800 | 280
3 | Cc1nc(CN2CCCC2)sc1-c1csc(Nc2cc(C(N)=O)ccc2OC(C)C)n1 [Example 130, 4-Isopropoxy-3-(4′-methyl-2′-pyrrolidin-1-ylmethyl-[4,5′]bithiazolyl-2-ylamino)-benzamide.TFA] | 700 | 4900 | 3000 | 550
4 | COc1ccc(C(N)=O)cc1Nc1nc(-c2sc(C)nc2C)cs1 [Example 18, 3-(2′,4′-Dimethyl-[4,5′]bithiazolyl-2-ylamino)-4-methoxy-benzamide.HBr] | 690 | 14000 | 840 | 340
5 | Cc1nc(N)sc1-c1csc(Nc2cc(C(N)=O)ccc2OC(C)C)n1 [Example 2, 3-(2′-Amino-4′-methyl-[4,5′]bithiazolyl-2-ylamino)-4-isopropoxy-benzamide.HBr] | 160 | 81 | 160 | 21
6 | Cc1nc(N2CCN(C)CC2)sc1-c1csc(Nc2cc(S(N)(=O)=O)ccc2OC(C)C)n1 [Example 61, 4-Isopropoxy-3-[4′-methyl-2′-(4-methyl-piperazin-1-yl)-[4,5′]bithiazolyl-2-ylamino]-benzenesulfonamide.TFA] | 380 | 110 | 140 | 69
7 | COc1ccc(N)cc1Nc1nc(-c2sc(NC(C)=O)nc2C)cs1 [Example 69, N-[2-(5-Amino-2-methoxy-phenylamino)-4′-methyl-[4,5′]bithiazolyl-2′-yl]-acetamide] | 1400 | 25000 | 1100 | 4800
8 | Cc1nc(C(=O)N2CCCN(C)CC2)sc1-c1csc(Nc2cc(C(N)=O)ccc2OC(C)C)n1 [Example 104, 4-Isopropoxy-3-[4′-methyl-2′-(4-methyl-[1,4]diazepane-1-carbonyl)-[4,5′]bithiazolyl-2-ylamino]-benzamide.TFA] | 130 | 530 | 610 | 460
9 | CCOc1ccc(C(=O)O)cc1Nc1nc(-c2sc(C)nc2C)cs1 [Example 47, 3-(2′,4′-Dimethyl-[4,5′]bithiazolyl-2-ylamino)-4-ethoxy-benzoic acid.HBr] | 310 | 2400 | 680 | 1800
10 | CCOc1ccc(C(N)=O)cc1Nc1nc(-c2sc(C(=O)NC3CCN(C(C)C)CC3)nc2C)cs1 [Example 122, 2-(5-Carbamoyl-2-ethoxy-phenylamino)-4′-methyl-[4,5′]bithiazolyl-2′-carboxylic acid (1-isopropyl-piperidin-4-yl)-amide.TFA] | 250 | 4900 | 670 | 830
11 | CCOc1ccc(C(N)=O)cc1Nc1nc(-c2sc(C(=O)N(C)CCN(C)C)nc2C)cs1 [Example 123, 2-(5-Carbamoyl-2-ethoxy-phenylamino)-4′-methyl-[4,5′]bithiazolyl-2′-carboxylic acid (2-dimethylamino-ethyl)-methyl-amide.TFA] | 440 | 1800 | 1000 | 280
12 | Cc1nc(-c2ccncc2)sc1-c1csc(Nc2cc(C(N)=O)ccc2OC(C)C)n1 [Example 98, 4-Isopropoxy-3-(4′-methyl-2′-pyridin-4-yl-[4,5′]bithiazolyl-2-ylamino)-benzamide.TFA] | 620 | 2300 | 670 | > 95000
13 | CCOc1ccc(C(N)=O)cc1Nc1nc(-c2sc(C)nc2C)cs1 [Example 6, 3-(2′,4′-Dimethyl-[4,5′]bithiazolyl-2-ylamino)-4-ethoxy-benzamide.TFA] | 160 | 2000 | 580 | 200
14 | Cc1nc(CN2CCN(C)CC2)sc1-c1csc(Nc2cc(C(N)=O)ccc2OC(C)C)n1 [Example 131, 4-Isopropoxy-3-[4′-methyl-2′-(4-methyl-piperazin-1-ylmethyl)-[4,5′]bithiazolyl-2-ylamino]-benzamide.TFA] | 730 | 5600 | 3300 | 770
15 | Cc1nc(CN2CCC(O)CC2)sc1-c1csc(Nc2cc(C(N)=O)ccc2OC(C)C)n1 [Example 127, 3-[2′-(4-Hydroxy-piperidin-1-ylmethyl)-4′-methyl-[4,5′]bithiazolyl-2-ylamino]-4-isopropoxy-benzamide.TFA] | 650 | 8600 | 3500 | 730
16 | COc1ccc(C(N)=O)cc1Nc1nc(-c2sc(NC(C)=O)nc2C)cs1 [Example 85, 3-(2′-Acetylamino-4′-methyl-[4,5′]bithiazolyl-2-ylamino)-4-methoxy-benzamide.HBr] | 270 | 43000 | 750 | 3500
17 | CCOC(=O)c1ccc(OCC)c(Nc2nc(-c3sc(NC(C)=O)nc3C)cs2)c1 [Example 83, 3-(2′-Acetylamino-4′-methyl-[4,5′]bithiazolyl-2-ylamino)-4-ethoxy-benzoic acid ethyl ester.HBr] | 480 | 1500 | 490 | 3900
18 | CCOc1ccc(-c2ncco2)cc1Nc1nc(-c2sc(N)nc2C)cs1 [Example 79, N^2-(2-Ethoxy-5-oxazol-2-yl-phenyl)-4′-methyl-[4,5′]bithiazolyl-2,2′diamine.HBr] | 550 | 240 | 52 | 1200
19 | CC(=O)Nc1nc(C)c(-c2csc(Nc3cc(C(N)=O)ccc3OC(C)C)n2)s1 [Example 3, 3-(2′-Acetylamino-4′-methyl-[4,5′]bithiazolyl-2-ylamino)-4-isopropoxy-benzamide.HBr] | 130 | 300 | 300 | 410
20 | Cc1nc(C)c(-c2nc(Nc3cc(C(N)=O)ccc3OC(C)C)sc2Br)s1 [Example 4, 3-(5-Bromo-2′,4′-dimethyl-[4,5′]bithiazolyl-2-ylamino)-4-isopropoxy-benzamide] | 9000 | 3200 | 3100 | 1200
21 | Cc1nc(Nc2cccnc2)sc1-c1csc(Nc2cc(C(N)=O)ccc2OC(C)C)n1 [Example 95, 4-Isopropoxy-3-[4′-methyl-2′-(pyridin-3-ylamino)-[4,5′]bithiazolyl-2-ylamino]-benzamide.TFA] | 410 | 4100 | 2800 | 220
22 | CCS(=O)(=O)c1ccc(OC)c(Nc2nc(-c3sc(N)nc3C)cs2)c1 [Example 51, N^2-(5-Ethanesulfonyl-2-methoxy-phenyl)-4′-methyl-[4,5′]bithiazolyl-2,2′-diamine.TFA] | 4100 | 1900 | 3000 | 1100
23 | CCN(CC)c1nc(C)c(-c2csc(Nc3cc(C(N)=O)ccc3OC(C)C)n2)s1 [Example 94, 3-(2′-Diethylamino-4′-methyl-[4,5′]bithiazolyl-2-ylamino)-4-isopropoxy-benzamide.TFA] | 400 | 6100 | 1700 | 310
24 | Cc1ccc(C(N)=O)cc1Nc1nc(-c2sc(N)nc2C)cs1 [Example 25, 3-(2′-Amino-4′-methyl-[4,5′]bithiazolyl-2-ylamino)-4-methyl-benzamide.HBr] | 4600 | 31000 | 6800 | 2700
